Columns and labels:
eastern black nightshade = assay: Test C pre-/postemergence test; type: in vivo, Solanum ptycanthum
In short: (§1)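 Test chemicals were formulated with surfactant in a non-phytotoxic solvent and sprayed both on freshly planted seeds (preemergence) and on 1- to 4-leaf plants of 2–18 cm (postemergence). Flooded-paddy pots received compound directly into 3 cm of standing water, maintained for the test.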

woolly cupgrass = assay: Test C pre-/postemergence test; type: in vivo, Eriochloa villosa; conditions: for Plant response rating, Cupgrass, Woolly: scale 0 to 100, 0 no effect, 100 complete control
In short: as §1

rice = assay: Test C flooded paddy test; type: in vivo, Oryza sativa; conditions: Flood
In short: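 Greenhouse pots flooded to 3 cm above soil at time of treatment received compound via the water, which stayed at that level.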

downy brome = assay: Test C pre-/postemergence test; type: in vivo, Bromus tectorum; conditions: for Plant response rating, Bromegrass, Downy: scale 0 to 100, 0 no effect, 100 complete control
In short: as §1

velvetleaf [1] = assay: Test C pre-/postemergence test; type: in vivo, Abutilon theophrasti; conditions: Postemergence; for Plant response rating, Velvetleaf: scale 0 to 100, 0 no effect, 100 complete control
In short: as §1

giant foxtail = assay: Test C pre-/postemergence test; type: in vivo, Setaria faberii; conditions: for Plant response rating, Foxtail, Giant: scale 0 to 100, 0 no effect, 100 complete control
In short: as §1

yellow nutsedge = assay: Test C pre-/postemergence test; type: in vivo, Cyperus esculentus; conditions: for Plant response rating, Nutsedge, Yellow: scale 0 to 100, 0 no effect, 100 complete control
In short: as §1

wild oat = assay: Test C pre-/postemergence test; type: in vivo, Avena fatua; conditions: for Plant response rating, Oat, Wild: scale 0 to 100, 0 no effect, 100 complete control
In short: as §1

velvetleaf [2] = assay: Test A pre-/postemergence greenhouse test; type: in vivo, Abutilon theophrasti; conditions: for Velvetleaf plant response rating: 0 to 100 scale
In short: (§2)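 Seeds sown in a loam soil–sand blend got a preemergence directed soil spray of compound in a non-phytotoxic solvent mixture containing surfactant. Postemergence sprays of the same formulation went at the same time onto plants 2–10 cm tall at the one- to two-leaf stage. Injury was scored visually against untreated controls after about ten days in the greenhouse.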

redroot pigweed = assay: Test A pre-/postemergence greenhouse test; type: in vivo, Amaranthus retroflexus; conditions: for Pigweed plant response rating: 0 to 100 scale
In short: as §2

johnsongrass = assay: Test C pre-/postemergence test; type: in vivo, Sorghum halepense; conditions: for Plant response rating, Johnsongrass: scale 0 to 100, 0 no effect, 100 complete control
In short: as §1

corn = assay: Test C pre-/postemergence test; type: in vivo, Zea mays; conditions: for Plant response rating, Corn: scale 0 to 100, 0 no effect, 100 complete control
In short: as §1

wheat [3] = assay: Test A pre-/postemergence greenhouse test; type: in vivo, Triticum aestivum; conditions: for Wheat plant response rating: 0 to 100 scale
In short: as §2

catchweed bedstraw = assay: Test C pre-/postemergence test; type: in vivo, Galium aparine
In short: as §1

morningglory = assay: Test C pre-/postemergence test; type: in vivo, Ipomoea coccinea; conditions: for Plant response rating, Morningglory: Postemergence, scale 0 to 100, 0 no effect, 100 complete control
In short: as §1

wheat [4] = assay: Test C pre-/postemergence test; type: in vivo, Triticum aestivum; conditions: for Wheat plant response rating: preemergence, scale 0 (no effect) to 100 (complete control); for Plant response rating, Wheat: scale 0 to 100, 0 no effect, 100 complete control
In short: as §1

[5] = 31 g ai/ha, Preemergence, scale 0 to 100
[6] = 62 g ai/ha, preemergence, scale 0 (no effect) to 100 (complete control)
[7] = preemergence, 125 g ai/ha, scale 0 (no effect) to 100 (complete control)
[8] = Postemergence, 125 g ai/ha, 0 is no effect, 100 is complete control
[9] = Postemergence, 500 g ai/ha, 0 is no effect, 100 is complete control
[10] = Preemergence, 125 g ai/ha, 0 no effect, 100 complete control
[11] = Preemergence, 500 g ai/ha, 0 to 100 scale where 0 is no effect and 100 is complete control

SMILES: Cc1cc[n+]([O-])c(S(=O)(=O)Cc2c(C(F)(F)F)nn(C)c2OC(F)F)c1 [Compound 2]
- Nightshade plant response rating (eastern black nightshade; [5]): 98
- Nightshade plant response rating (eastern black nightshade; [6]): 100
- Plant response rating (0 to 100), Nightshade (eastern black nightshade; Preemergence, 250 g ai/ha): 100
- Nightshade plant response rating (eastern black nightshade; [7]): 100
- Cupgrass, Woolly plant response rating (woolly cupgrass; [5]): 65
- Cupgrass, Woolly plant response rating (woolly cupgrass; [6]): 90
- Plant response rating (0 to 100), Cupgrass, Woolly (woolly cupgrass; Postemergence, 31 g ai/ha): 0
- Plant response rating, Cupgrass, Woolly (woolly cupgrass; Postemergence, 62 g ai/ha): 30
- Plant response rating, Cupgrass, Woolly (woolly cupgrass; Postemergence, 125 g ai/ha): 50
- Plant response rating, Cupgrass, Woolly (woolly cupgrass; Postemergence, 250 g ai/ha): 50
- Plant response rating (0 to 100), Cupgrass, Woolly (woolly cupgrass; Preemergence, 250 g ai/ha): 100
- Cupgrass, Woolly plant response rating (woolly cupgrass; [7]): 100
- Plant response rating, Rice (rice; 31 g ai/ha, scale 0 to 100 (0 no effect, 100 complete control)): 0
- Plant response rating, Rice (rice; 62 g ai/ha, scale 0 to 100, 0 no effect, 100 complete control, 13 to 15 days): 10
- Plant response rating, Rice (rice; 125 g ai/ha, scale 0 to 100, 0 no effect, 100 complete control, 13 to 15 days): 45
- Plant response rating, Rice (rice; 250 g ai/ha, scale 0 to 100 (0 no effect, 100 complete control)): 70
- Bromegrass, Downy plant response rating (downy brome; [5]): 0
- Bromegrass, Downy plant response rating (downy brome; [6]): 40
- Plant response rating (0 to 100), Bromegrass, Downy (downy brome; Postemergence, 31 g ai/ha): 0
- Plant response rating, Bromegrass, Downy (downy brome; Postemergence, 62 g ai/ha): 0
- Plant response rating, Bromegrass, Downy (downy brome; Postemergence, 125 g ai/ha): 0
- Plant response rating, Bromegrass, Downy (downy brome; Postemergence, 250 g ai/ha): 0
- Plant response rating (0 to 100), Bromegrass, Downy (downy brome; Preemergence, 250 g ai/ha): 45
- Bromegrass, Downy plant response rating (downy brome; [7]): 45
- Plant response rating (0 to 100), Velvetleaf (velvetleaf [1]; 31 g ai/ha): 0
- Plant response rating (0 to 100), Velvetleaf (velvetleaf [1]; 62 g ai/ha): 0
- Plant response rating, Velvetleaf (velvetleaf [1]; 125 g ai/ha): 0
- Plant response rating, Velvetleaf (velvetleaf [1]; 250 g ai/ha): 5
- Foxtail, Giant plant response rating (giant foxtail; [5]): 65
- Foxtail, Giant plant response rating (giant foxtail; [6]): 90
- Plant response rating (0 to 100), Foxtail, Giant (giant foxtail; Postemergence, 31 g ai/ha): 0
- Plant response rating, Foxtail, Giant (giant foxtail; Postemergence, 62 g ai/ha): 0
- Plant response rating, Foxtail, Giant (giant foxtail; Postemergence, 125 g ai/ha): 0
- Plant response rating, Foxtail, Giant (giant foxtail; Postemergence, 250 g ai/ha): 50
- Plant response rating (0 to 100), Foxtail, Giant (giant foxtail; Preemergence, 250 g ai/ha): 100
- Foxtail, Giant plant response rating (giant foxtail; [7]): 100
- Nutsedge, Yellow plant response rating (yellow nutsedge; [5]): 0
- Nutsedge, Yellow plant response rating (yellow nutsedge; [6]): 95
- Plant response rating (0 to 100), Nutsedge, Yellow (yellow nutsedge; Postemergence, 31 g ai/ha): 0
- Plant response rating, Nutsedge, Yellow (yellow nutsedge; Postemergence, 62 g ai/ha): 0
- Plant response rating, Nutsedge, Yellow (yellow nutsedge; Postemergence, 125 g ai/ha): 0
- Plant response rating, Nutsedge, Yellow (yellow nutsedge; Postemergence, 250 g ai/ha): 0
- Plant response rating (0 to 100), Nutsedge, Yellow (yellow nutsedge; Preemergence, 250 g ai/ha): 100
- Nutsedge, Yellow plant response rating (yellow nutsedge; [7]): 95
- Oat, Wild plant response rating (wild oat; [5]): 50
- Oat, Wild plant response rating (wild oat; [6]): 65
- Plant response rating (0 to 100), Oat, Wild (wild oat; Postemergence, 31 g ai/ha): 0
- Plant response rating, Oat, Wild (wild oat; Postemergence, 62 g ai/ha): 0
- Plant response rating, Oat, Wild (wild oat; Postemergence, 125 g ai/ha): 0
- Plant response rating, Oat, Wild (wild oat; Postemergence, 250 g ai/ha): 0
- Plant response rating (0 to 100), Oat, Wild (wild oat; Preemergence, 250 g ai/ha): 95
- Oat, Wild plant response rating (wild oat; [7]): 70
- Velvetleaf plant response rating (velvetleaf [2]; [8]): 60
- Velvetleaf plant response rating (velvetleaf [2]; [9]): 80
- Velvetleaf plant response rating (velvetleaf [2]; [10]): 70
- Plant response rating, Velvetleaf (velvetleaf [2]; [11]): 90
- Pigweed plant response rating (redroot pigweed; [8]): 100
- Pigweed plant response rating (redroot pigweed; [9]): 100
- Pigweed plant response rating (redroot pigweed; [10]): 100
- Plant response rating, Pigweed (redroot pigweed; [11]): 100
- Johnsongrass plant response rating (johnsongrass; [5]): 30
- Johnsongrass plant response rating (johnsongrass; [6]): 95
- Plant response rating (0 to 100), Johnsongrass (johnsongrass; Postemergence, 31 g ai/ha): 0
- Plant response rating, Johnsongrass (johnsongrass; Postemergence, 62 g ai/ha): 0
- Plant response rating, Johnsongrass (johnsongrass; Postemergence, 125 g ai/ha): 0
- Plant response rating, Johnsongrass (johnsongrass; Postemergence, 250 g ai/ha): 0
- Plant response rating (0 to 100), Johnsongrass (johnsongrass; Preemergence, 250 g ai/ha): 100
- Johnsongrass plant response rating (johnsongrass; [7]): 100
- Corn plant response rating (corn; [5]): 0
- Corn plant response rating (corn; [6]): 5
- Plant response rating (0 to 100), Corn (corn; Postemergence, 31 g ai/ha): 0
- Plant response rating, Corn (corn; Postemergence, 62 g ai/ha): 0
- Plant response rating, Corn (corn; Postemergence, 125 g ai/ha): 0
- Plant response rating, Corn (corn; Postemergence, 250 g ai/ha): 0
- Plant response rating (0 to 100), Corn (corn; Preemergence, 250 g ai/ha): 85
- Corn plant response rating (corn; [7]): 45
- Wheat plant response rating (wheat [3]; [8]): 60
- Wheat plant response rating (wheat [3]; [9]): 70
- Wheat plant response rating (wheat [3]; [10]): 40
- Plant response rating, Wheat (wheat [3]; [11]): 70
- Galium plant response rating (catchweed bedstraw; [5]): 85
- Galium plant response rating (catchweed bedstraw; [6]): 95
- Plant response rating (0 to 100), Galium (catchweed bedstraw; Preemergence, 250 g ai/ha): 100
- Galium plant response rating (catchweed bedstraw; [7]): 100
- Morningglory plant response rating (morningglory; [5]): 85
- Morningglory plant response rating (morningglory; [6]): 100
- Plant response rating, Morningglory (morningglory; 62 g ai/ha): 5
- Plant response rating, Morningglory (morningglory; 125 g ai/ha): 5
- Plant response rating, Morningglory (morningglory; 250 g ai/ha): 30
- Plant response rating (0 to 100), Morningglory (morningglory; Preemergence, 250 g ai/ha): 100
- Morningglory plant response rating (morningglory; [7]): 100
- Wheat plant response rating (wheat [4]; 62 g ai/ha): 0
- Plant response rating (0 to 100), Wheat (wheat [4]; Postemergence, 31 g ai/ha): 0
- Plant response rating (0 to 100), Wheat (wheat [4]; Postemergence, 62 g ai/ha): 0
- Plant response rating, Wheat (wheat [4]; Postemergence, 125 g ai/ha): 0
- Plant response rating, Wheat (wheat [4]; Postemergence, 250 g ai/ha): 0
- Plant response rating (0 to 100), Wheat (wheat [4]; Preemergence, 250 g ai/ha): 98
- Wheat plant response rating (wheat [4]; 125 g ai/ha): 70
